What is called EC50 is the concentration needed to bring the measured effect to its halfway point.

Chain of androgen receptor (hAR) (P10275 whole entry): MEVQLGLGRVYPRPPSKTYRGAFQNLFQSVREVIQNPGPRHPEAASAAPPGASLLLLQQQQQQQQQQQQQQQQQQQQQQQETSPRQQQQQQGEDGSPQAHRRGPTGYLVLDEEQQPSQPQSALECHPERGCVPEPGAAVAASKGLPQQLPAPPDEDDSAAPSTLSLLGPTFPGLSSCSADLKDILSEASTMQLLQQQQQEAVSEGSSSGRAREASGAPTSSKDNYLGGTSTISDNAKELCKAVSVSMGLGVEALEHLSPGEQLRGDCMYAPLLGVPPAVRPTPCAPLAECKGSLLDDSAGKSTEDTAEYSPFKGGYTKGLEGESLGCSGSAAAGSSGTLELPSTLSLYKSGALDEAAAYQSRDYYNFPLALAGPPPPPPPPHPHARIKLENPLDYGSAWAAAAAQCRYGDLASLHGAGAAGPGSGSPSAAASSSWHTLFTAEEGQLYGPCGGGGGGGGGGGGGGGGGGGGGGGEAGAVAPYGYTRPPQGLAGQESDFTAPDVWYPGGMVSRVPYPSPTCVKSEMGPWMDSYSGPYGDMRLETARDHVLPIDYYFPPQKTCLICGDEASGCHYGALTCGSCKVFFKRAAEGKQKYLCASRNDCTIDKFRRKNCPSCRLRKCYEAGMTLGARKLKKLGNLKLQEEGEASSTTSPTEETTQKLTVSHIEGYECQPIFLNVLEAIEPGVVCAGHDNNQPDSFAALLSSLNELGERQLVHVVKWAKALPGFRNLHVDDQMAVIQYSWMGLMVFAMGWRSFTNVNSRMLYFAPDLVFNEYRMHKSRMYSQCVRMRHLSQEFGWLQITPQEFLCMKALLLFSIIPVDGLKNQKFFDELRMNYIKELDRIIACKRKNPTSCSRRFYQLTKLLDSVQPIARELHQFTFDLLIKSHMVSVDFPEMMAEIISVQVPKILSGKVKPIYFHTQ

One experiment addresses androgen receptor (hAR) (Homo sapiens (Human), UniProt P10275). Put plainly: Test of transcriptional activity (hAR / ARE-Luc dual-luciferase assay in CHO cells). The format is cell-based. As to conditions: CHO cells with hAR and ARE-Luc, 24 hours; 10 nM DHT = 100%; read-out: EC50 [nM] (mean ± SE). As to the method:
In order to examine the transcriptional activity of the agonists of the present invention, the following in-vitro experiment was performed. CHO (Chinese hamster ovary) cell line (ATCC, #CCL-61) was seeded in a 96-well plate at a density of 1.5×10^4 cells/well, and cultured for 24 hours. Then, a plasmid hAR and plasmid ARE-Luc-mixed medium was added thereto. The transfected cell line was treated with 0.1˜10,000 nM of SARM derivatives, and then allowed to react for 24 hours.
For `Cc1cc(N2C[C@@H](COc3ccc(C#N)cc3)O[C@@H]2C(F)(F)F)ccc1[N+](=O)[O-]` [Example 53, 4-(((2R,5S)-3-(3-methyl-4-nitrophenyl)-2-(trifluoromethyl)oxazolidin-5-yl)methoxy)benzonitrile], the EC50 was 2.5 ± 0.7 nM. The same measure, in the same setting: then “(2R,5S)-3-(3-chloro-4-nitrophenyl)-N-(4-cyano-2-fluorophenyl)-2-(trifluoromethyl)oxazolidine-5-carboxamide [Example 124]”, with 3.15 nM; and “(2R,5S)-3-(3-chloro-4-nitrophenyl)-N-(6-cyanopyridin-3-yl)-2-(trifluoromethyl)oxazolidine-5-carboxamide [Example 125]”, with 11.2 nM; and `Cc1cc(N2C[C@@H](COc3ccncc3)O[C@@H]2C(F)(F)F)ccc1[N+](=O)[O-]` [Example 69, (2R,5S)-3-(3-methyl-4-nitrophenyl)-5-((pyridin-4-yloxy)methyl)-2-(trifluoromethyl)oxazolidine], with 1.54 nM.

For the compound “(2R,5S)-N-(4-cyano-2,6-difluorophenyl)-3-(4-cyano-3-(trifluoromethyl)phenyl)-2-(trifluoromethyl)oxazolidine-5-carboxamide [Example 129]”, the EC50 is 4.68 nM. Consider `Cc1cc(N2C[C@@H](COc3ccc(C#N)nc3)O[C@@H]2C(F)(F)F)ccc1[N+](=O)[O-]` [Example 55, 5-(((2R,5S)-3-(3-methyl-4-nitrophenyl)-2-(trifluoromethyl)oxazolidin-5-yl)methoxy)picolinonitrile], for which the EC50 is 4.49 nM. With `N#Cc1ccc(OC[C@@H]2CN(c3ccc(Cl)c(Cl)c3)[C@@H](C(F)(F)F)O2)cc1` [Example 63, 4-(((2R,5S)-3-(3,4-dichlorophenyl)-2-(trifluoromethyl)oxazolidin-5-yl)methoxy)benzonitrile], the EC50 was found to be 36.3 nM. For `CC(=O)Nc1ccc(OC[C@@H]2CN(c3ccc([N+](=O)[O-])c(C)c3)[C@@H](C(F)(F)F)O2)cc1` [Example 54, N-(4-(((2R,5S)-3-(3-methyl-4-nitrophenyl)-2-(trifluoromethyl)oxazolidin-5-yl)methoxy)phenyl)acetamide], the EC50 was found to be 0.86 nM. In the case of “(2R,5S)-N-(3-chloro-4-cyano-2-fluorophenyl)-3-(4-cyano-3-(trifluoromethyl)phenyl)-2-(trifluoromethyl)oxazolidine-5-carboxamide [Example 130]”, the EC50 came out at 10.2 nM. On to “(2R,5S)-N-(2-chloro-4-cyanophenyl)-3-(4-cyano-3-(trifluoromethyl)phenyl)-2-(trifluoromethyl)oxazolidine-5-carboxamide [Example 114]”, for which the EC50 was determined as 201 nM. On to “(2R,5S)-3-(3-chloro-4-cyanophenyl)-N-(4-cyano-2-fluorophenyl)-2-(trifluoromethyl)oxazolidine-5-carboxamide [Example 119]”, for which the EC50 came to 227 nM.

Still in this experiment, the particulars now being: EC50 [nM] (mean ± SE), CHO cells with hAR and ARE-Luc, 24 hours; 10 nM DHT = 100%.
In the case of `N#Cc1ccc(OC[C@@H]2CN(c3ccc(C#N)c(C(F)(F)F)c3)[C@H](C(F)(F)F)O2)cn1` [Example 45, 5-(((2S,5S)-3-(4-cyano-3-(trifluoromethyl)phenyl)-2-(trifluoromethyl)oxazolidin-5-yl)methoxy)picolinonitrile], a half-maximal response (EC50) required 44.1 nM. Still for that read-out and setting: the result for `N#Cc1ccc(N2C[C@@H](C(=O)Nc3ccc(N)cc3F)O[C@@H]2C(F)(F)F)cc1C(F)(F)F` [Example 105, (2R,5S)-N-(4-amino-2-fluorophenyl)-3-(4-cyano-3-(trifluoromethyl)phenyl)-2-(trifluoromethyl)oxazolidine-5-carboxamide] reads 49.9 nM; that for `N#Cc1ccc(N2C[C@@H](COc3ccnc(Cl)c3)O[C@@H]2C(F)(F)F)cc1C(F)(F)F` [Example 68, 4-((2R,5S)-5-(((2-chloropyridin-4-yl)oxy)methyl)-2-(trifluoromethyl)oxazolidin-3-yl)-2-(trifluoromethyl)benzonitrile], 6.06 nM; that for `COC(=O)Nc1ccc(NC(=O)[C@@H]2CN(c3ccc(C#N)c(C(F)(F)F)c3)[C@@H](C(F)(F)F)O2)cc1` [Example 157, methyl(4-((2R,5S)-3-(4-cyano-3-(trifluoromethyl)phenyl)-2-(trifluoromethyl)oxazolidine-5-carboxamido)phenyl)carbamate], 231 nM. Same read-out and setting: then `N#Cc1ccc(NC(=O)[C@@H]2CN(c3ccc(C#N)c(C(F)(F)F)c3)[C@@H](C(F)(F)F)O2)cc1F` [Example 147, (2R,5S)-3-(4-cyano-3-(trifluoromethyl)phenyl)-N-(4-cyano-3-fluorophenyl)-2-(trifluoromethyl)oxazolidine-5-carboxamide], with 768 nM; and `N#Cc1cccc(OC[C@@H]2CN(c3ccc(C#N)c(C(F)(F)F)c3)[C@@H](C(F)(F)F)O2)c1` [Example 46, 4-((2R,5S)-5-((3-cyanophenoxy)methyl)-2-(trifluoromethyl)oxazolidin-3-yl)-2-(trifluoromethyl)benzonitrile], with 31.5 nM.

`N#Cc1ccc(OC[C@@H]2CN(c3ccc(C#N)c(C(F)(F)F)c3)[C@@H]([C@H](O)C(F)(F)F)O2)cc1` [Example 49, 4-((2R,5S)-5-((4-cyanophenoxy)methyl)-2-((S)-2,2,2-trifluoro-1-hydroxyethyl)oxazolidin-3-yl)-2-(trifluoromethyl)benzonitrile] came in with an EC50 of 1700 nM. Same read-out and setting: the result for `N#Cc1ccc(N2C[C@@H](C(=O)Nc3cccnc3)O[C@@H]2C(F)(F)F)cc1C(F)(F)F` [Example 110, (2R,5S)-3-(4-cyano-3-(trifluoromethyl)phenyl)-N-(pyridin-3-yl)-2-(trifluoromethyl)oxazolidine-5-carboxamide] reads 80 nM; that for `N#Cc1ccc(N2C[C@@H](COc3ccc(N)cc3)O[C@@H]2C(F)(F)F)cc1C(F)(F)F` [Example 14, 4-((2R,5S)-5-((4-aminophenoxy)methyl)-2-(trifluoromethyl)oxazolidin-3-yl)-2-(trifluoromethyl)benzonitrile], 111 nM. The same measure, in the same setting: then `N#Cc1ccc(NC(=O)[C@@H]2CN(c3ccc(C#N)c(C(F)(F)F)c3)[C@@H](C(F)(F)F)O2)c(F)c1` [Example 139, (2R,5S)-N-(4-cyano-2-fluorophenyl)-3-(4-cyano-3-(trifluoromethyl)phenyl)-2-(trifluoromethyl)oxazolidine-5-carboxamide], with 2.74 nM. Still for that read-out and setting: the result for `N#Cc1ccc(N2C[C@@H](COc3ccc(/C=N/O)cc3)O[C@@H]2C(F)(F)F)cc1Cl` [Example 74, 2-chloro-4-((2R,5S)-5-((4-((E)-(hydroxyimino)methyl)phenoxy)methyl)-2-(trifluoromethyl)oxazolidin-3-yl)benzonitrile] reads 0.658 nM; that for `N#Cc1ccc(N2C[C@@H](COc3ccncc3)O[C@@H]2C(F)(F)F)cc1C(F)(F)F` [Example 59, 4-((2R,5S)-5-((pyridin-4-yloxy)methyl)-2-(trifluoromethyl)oxazolidin-3-yl)-2-(trifluoromethyl)benzonitrile], 3.25 nM.

As to `CC(=O)NC1CCN(C(=O)[C@@H]2CN(c3ccc(C#N)c(C(F)(F)F)c3)[C@@H](C(F)(F)F)O2)CC1` [Example 176], the EC50 amounted to 198 nM. Take `N#Cc1ccc(OC[C@@H]2CN(c3ccc(C#N)c(C(F)(F)F)c3)[C@@H](C(F)(F)F)O2)c([N+](=O)[O-])c1` [Example 99, 4-((2R,5S)-5-((4-cyano-2-nitrophenoxy)methyl)-2-(trifluoromethyl)oxazolidin-3-yl)-2-(trifluoromethyl)benzonitrile]: a half-maximal response (EC50) required 97.3 nM. `CS(=O)(=O)Nc1ccc(OC[C@@H]2CN(c3ccc(C#N)c(C(F)(F)F)c3)[C@@H](C(F)(F)F)O2)cc1` [Example 39, N-(4-(((2R,5S)-3-(4-cyano-3-(trifluoromethyl)phenyl)-2-(trifluoromethyl)oxazolidin-5-yl)methoxy)phenyl)methanesulfonamide] had an EC50 of 42.6 nM.

Take `N#Cc1ccc(OC[C@@H]2CN(c3ccc(C#N)c(C(F)(F)F)c3)[C@@H]([C@@H](O)C(F)(F)F)O2)cc1` [Example 48, 4-((2R,5S)-5-((4-cyanophenoxy)methyl)-2-((R)-2,2,2-trifluoro-1-hydroxyethyl)oxazolidin-3-yl)-2-(trifluoromethyl)benzonitrile]: the EC50 is 1520 nM. `N#Cc1ccc(N2C[C@@H](COc3ccc(-c4nnco4)cc3)O[C@@H]2C(F)(F)F)cc1C(F)(F)F` [Example 18, 4-((2R,5S)-5-((4-(1,3,4-oxadiazol-2-yl)phenoxy)methyl)-2-(trifluoromethyl)oxazolidin-3-yl)-2-(trifluoromethyl)benzonitrile] yielded an EC50 of 18.6 nM. Still for that read-out and setting: the result for `COC(=O)Nc1ccc(NC(=O)[C@@H]2CN(c3ccc(C#N)c(C(F)(F)F)c3)[C@@H](C(F)(F)F)O2)c(Cl)c1` [Example 154, methyl(3-chloro-4-((2R,5S)-3-(4-cyano-3-(trifluoromethyl)phenyl)-2-(trifluoromethyl)oxazolidine-5-carboxamido)phenyl)carbamate] reads 27.8 nM. Take `CCOC(=O)Nc1ccc(OC[C@@H]2CN(c3ccc(C#N)c(C(F)(F)F)c3)[C@@H](C(F)(F)F)O2)cc1` [Example 41, ethyl(4-(((2R,5S)-3-(4-cyano-3-(trifluoromethyl)phenyl)-2-(trifluoromethyl)oxazolidin-5-yl)methoxy)phenyl)carbamate]: the EC50 was 16.2 nM. `N#Cc1ccc(N2C[C@@H](COc3ccc(C(F)(F)F)cc3)O[C@@H]2C(F)(F)F)cc1C(F)(F)F` [Example 37, 2-(trifluoromethyl)-4-((2R,5S)-2-(trifluoromethyl)-5-((4-(trifluoromethyl)phenoxy)methyl)oxazolidin-3-yl)benzonitrile] returned an EC50 of 31.6 nM.

The values above are taken from US9809583B2 (priority 2014, dated 2017).
